Where “and” joins values, the source holds several entries; their conditions need not be identical. Equal values may be shown once.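 The compound was tested at five concentrations on cells cultured in 96-well plates, with a 48-hour exposure period. The concentration for 50% growth inhibition is given as GI50. TGI denotes the concentration required for complete inhibition of growth.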
Columns and labels:
Test in all cases: NCI-60 cell line screen, 48 h
SF-268 CNS = test system: SF-268 CNS
UO-31 renal = test system: UO-31 renal
SNB-19 CNS = test system: SNB-19 CNS
SK-MEL-2 melanoma = test system: SK-MEL-2 melanoma
SW-620 colon = test system: SW-620 colon
NCI-H23 lung = test system: NCI-H23 lung
NCI-H522 lung = test system: NCI-H522 lung
IGROV1 ovarian = test system: IGROV1 ovarian
MDA-MB-231 breast = test system: MDA-MB-231 breast
PC-3 prostate = test system: PC-3 prostate

Row | SMILES | GI50 (SF-268 CNS) | TGI (SF-268 CNS) | GI50 (UO-31 renal) | TGI (UO-31 renal) | GI50 (SNB-19 CNS) | TGI (SNB-19 CNS) | GI50 (SK-MEL-2 melanoma) | TGI (SK-MEL-2 melanoma) | GI50 (SW-620 colon) | TGI (SW-620 colon) | GI50 (NCI-H23 lung) | TGI (NCI-H23 lung) | GI50 (NCI-H522 lung) | TGI (NCI-H522 lung) | GI50 (IGROV1 ovarian) | TGI (IGROV1 ovarian) | GI50 (MDA-MB-231 breast) | TGI (MDA-MB-231 breast) | GI50 (PC-3 prostate) | TGI (PC-3 prostate)
1 | FC(F)(F)c1cccc2c(SCCc3n[nH]c(=S)o3)ccnc12 | 85.6 µM | > 100 µM | 25.4 µM | > 100 µM | 54.2 µM | > 100 µM | 25.4 µM | 82.6 µM | > 100 µM | > 100 µM | 40 µM | > 100 µM | 22.6 µM | 90 µM | 23.4 µM | > 100 µM | 43.1 µM | > 100 µM | 34.1 µM | > 100 µM
2 | CN1C[C@@H]2Cn3c(c(C4=C(c5cn(C)c6ccccc56)C(=O)NC4=O)c4ccccc43)C[C@H]2C1 | 4.8 µM and 4.93 µM | 9.46 µM and 9.97 µM | 2.01 µM and 2.98 µM | 5.38 µM and 6.66 µM | 6.44 µM and 5.87 µM | 18.4 µM and 16.4 µM | 4.52 µM and 3.91 µM | 8.92 µM and 7.75 µM | 4.34 µM and 3.22 µM | 9.21 µM and 8.94 µM | 4.96 µM and 6.11 µM | 10.7 µM and 15.3 µM | 4.16 µM and 3.63 µM | 8.15 µM and 7.81 µM | 5.73 µM and 6.57 µM | 11 µM and 15 µM | 4.37 µM and 4.1 µM | 8.85 µM and 9.22 µM | 3.91 µM and 2.81 µM | 11 µM and 7.08 µM
3 | COc1cccc(CCC(=O)c2cc3c(N)c(C(=O)Nc4cccc(Cl)c4C)sc3nc2C)c1 | 0.814 µM | > 100 µM | 0.86 µM | > 100 µM | 0.523 µM | > 100 µM | 1.36 µM | > 100 µM | 0.469 µM | > 100 µM | 2.35 µM | > 100 µM | 0.368 µM |  | 0.628 µM | > 100 µM | 1.4 µM | > 78.6 µM | 0.746 µM | > 100 µM
4 | O=C(CCSc1ccnc2c(C(F)(F)F)cccc12)N/N=C/c1cc(Cl)c(Cl)cc1Cl | 23.2 µM | 50.3 µM | 20.6 µM | 49.2 µM | 21.9 µM | 48.5 µM | 50.5 µM | > 100 µM | 23.8 µM | 43.4 µM | 24.1 µM | 52.1 µM | 31.6 µM | > 100 µM | 18.8 µM | 40.7 µM | 16.8 µM | 32.6 µM | 18 µM | 36.7 µM
5 | CCNNC(=O)[C@@H]1[C@H](c2cc(OC)c(OC)c(OC)c2)c2cc3c(cc2[C@H](O)[C@H]1CO)OCO3 | 1.31 µM | > 100 µM | 4.32 µM | > 100 µM | 0.452 µM | > 100 µM | 0.614 µM | > 100 µM | 0.396 µM | > 100 µM | 0.372 µM | > 100 µM | 0.288 µM | 0.833 µM | 0.59 µM | > 100 µM | 0.5 µM | > 100 µM | 0.391 µM | > 100 µM
6 | CCc1ccc2nccc(NCCCN(C)C)c2c1[N+](=O)[O-] |  | > 100 µM |  | > 100 µM |  | > 100 µM |  | > 100 µM |  | > 100 µM |  | > 100 µM |  | > 100 µM |  | > 100 µM |  | > 100 µM |  | > 100 µM
7 | CN(CC(=O)O)Cc1oc(CO)cc(=O)c1O |  | > 100 µM |  | > 100 µM |  | > 100 µM |  | > 100 µM |  | > 100 µM |  | > 100 µM |  | > 100 µM |  | > 100 µM |  | > 100 µM |  | > 100 µM
8 | C=C(CNC(=O)c1ccccc1)c1ccc(C(=O)Nc2ccccc2N)cc1 | 11.7 µM | > 100 µM | 2.78 µM | > 100 µM | 80.2 µM | > 100 µM | 5.2 µM | > 100 µM | 3.62 µM | > 100 µM | 18.7 µM | > 100 µM | 2.6 µM | 10.1 µM | 19.5 µM | > 100 µM | 5.56 µM | 45.1 µM | 2.95 µM | > 100 µM
9 | Nc1ccc(C(OC(=O)c2cc3ccccc3c(Cc3c(O)c(C(=O)OC(c4ccc(N)cc4)(c4ccc(N)cc4)c4ccc(N)cc4)cc4ccccc34)c2O)(c2ccc(N)cc2)c2ccc(N)cc2)cc1 | 0.471 µM | 18.7 µM | 3.66 µM | 63.4 µM | 0.444 µM | 20.7 µM | 1.4 µM | 4.55 µM | 1.14 µM | 13.9 µM | 0.645 µM | 17.3 µM | 0.588 µM | 12.4 µM | 9.89 µM | 85 µM | 2.8 µM | 8.76 µM | 1.22 µM | 20.4 µM
10 | O=c1oc2c3ccc4cnccc4c3[nH]c2c2ccccc12 | 13.1 µM | > 100 µM | 22.9 µM | > 100 µM | 18.5 µM | > 100 µM | 18.8 µM | 54.8 µM | 4.58 µM | 23.5 µM | 23.3 µM | 80.1 µM | 11.8 µM | 77.1 µM | 12.7 µM | > 100 µM | 16.9 µM | 38.5 µM | 55.8 µM | > 100 µM
11 | COc1cc(C2CC(=O)Nc3c2ccc2ccccc32)cc(Br)c1OC (centres undefined) | 0.933 µM | > 100 µM | 2.24 µM | > 34.5 µM | 11.7 µM | > 100 µM | 0.695 µM | > 100 µM | 0.359 µM | > 100 µM | 0.565 µM | > 100 µM | 0.41 µM | 8.42 µM | 0.86 µM | > 42.3 µM | 2.83 µM | > 46.7 µM | 0.49 µM | > 100 µM
12 | Nc1c(C(=O)N/N=C/c2ccc(-c3cc(Cl)c(Cl)cc3Cl)o2)cnn1-c1ccnc2c(C(F)(F)F)cccc12 | 5.2 µM | > 100 µM | 3.49 µM | > 100 µM | 4.17 µM | > 100 µM | 5.31 µM | 34.3 µM | 4.05 µM | > 100 µM | 3.32 µM | 47.2 µM | 3.37 µM | 31.1 µM | 4.53 µM | > 100 µM | 3.83 µM | 22 µM | 2.09 µM | 6.03 µM
13 | COc1c(Cl)ccc2c(-c3nc4cc(Cl)c(F)cc4s3)cc(=O)oc12 | 2.93 µM | 8.89 µM | 1.44 µM | 3.15 µM | > 43.4 µM | > 72.3 µM | 21.4 µM | 87.9 µM | 10.3 µM | > 100 µM | 3.25 µM | > 73.7 µM | 1.6 µM | 3.38 µM | 1.68 µM | 3.97 µM | 2.84 µM | 11.2 µM | 4.46 µM | 15.5 µM

Source: PubChem BioAssay (NCI)
